Laboratory results reported in ChEMBL document CHEMBL1126970, “Development of 1,4-benzodiazepine cholecystokinin type B antagonists” (J Med Chem, 1993).

Experiments:
Cavia porcellus = organism: Cavia porcellus; assay: Selectivity ratio between CCK-B and CCK-A receptor; set-up: reference not given here
[1] = biological target: T1, Cholecystokinin receptor type A (Rattus norvegicus, UniProt P30551); assay: Inhibition of binding of [125I]CCK-8 to cholecystokinin type A receptor in rat pancreatic tissue
T1 sequence (P30551 whole entry): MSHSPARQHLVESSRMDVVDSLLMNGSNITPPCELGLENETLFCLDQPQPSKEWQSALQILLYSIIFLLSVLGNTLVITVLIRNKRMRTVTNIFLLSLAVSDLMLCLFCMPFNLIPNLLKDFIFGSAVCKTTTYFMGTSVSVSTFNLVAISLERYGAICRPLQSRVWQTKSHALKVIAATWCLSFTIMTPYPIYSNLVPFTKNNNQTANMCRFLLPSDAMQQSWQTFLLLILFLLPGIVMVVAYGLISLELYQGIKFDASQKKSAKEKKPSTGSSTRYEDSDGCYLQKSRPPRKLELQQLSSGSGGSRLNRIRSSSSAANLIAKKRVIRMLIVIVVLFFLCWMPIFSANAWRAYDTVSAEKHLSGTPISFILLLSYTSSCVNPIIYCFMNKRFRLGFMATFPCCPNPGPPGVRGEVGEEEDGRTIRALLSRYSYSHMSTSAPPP

SMILES	Selectivity ratio (Cavia porcellus)	IC50 [1] [nM]
Cc1cccc(NC(=O)NC2N=C(c3ccccc3)c3cccnc3N(C)C2=O)c1 (racemic)	< 0.01	104
CN1C(=O)[C@H](NC(=O)Nc2ccc(Cl)cc2)N=C(c2ccccc2)c2ccccc21	112	2200
CC(=O)Oc1cccc(NC(=O)N[C@@H]2N=C(c3ccccc3)c3ccccc3N(C)C2=O)c1	13	6600
CN1C(=O)C(NC(=O)Nc2cccc(F)c2)N=C(c2ccccc2)c2ccccc21 (racemic)	0.2	–
O=C(Nc1ccc(Cl)cc1)NC1N=C(c2ccccc2)c2ccccc2N(Cc2nn[nH]n2)C1=O (racemic)	4	–
COc1ccccc1NC(=O)NC1N=C(c2ccccc2)c2ccccc2N(C)C1=O (racemic)	0.5	–
C[C@H](NC(=O)NC1N=C(c2ccccc2)c2ccccc2N(C)C1=O)c1ccccc1 (mixture of isomers)	0.04	430
CN1C(=O)[C@H](NC(=O)Nc2cccc(Cl)c2)N=C(c2ccccc2)c2ccccc21	39	–
COC(=O)c1cccc(NC(=O)N[C@@H]2N=C(c3ccccc3)c3ccccc3N(C)C2=O)c1	150	1200
CN1C(=O)C(NC(=O)NCc2cccc(C(C)(C)O)c2)N=C(c2ccccc2)c2ccccc21 (stereo unspecified)	69	406
CN1C(=O)C(NC(=O)Nc2cccnc2)N=C(c2ccccc2)c2ccccc21 (racemic)	0.4	120
CN1CCN(C(=O)CN2C(=O)C(NC(=O)Nc3ccc(Cl)cc3)N=C(c3ccccc3)c3ccccc32)CC1 (racemic)	1500	–
Cc1cccc(NC(=O)NC2N=C(c3ccncc3)c3ccccc3N(C)C2=O)c1 (racemic)	7.5	390
Cc1cc(C)cc(NC(=O)NC2N=C(c3ccccc3)c3ccccc3N(C)C2=O)c1 (stereo unspecified)	2.7	720
COc1ccc(NC(=O)NC2N=C(c3ccccc3)c3ccccc3N(C)C2=O)cn1 (stereo unspecified)	6.3	2900
CN1C(=O)[C@H](NC(=O)Nc2cccc(N)c2)N=C(c2ccccc2)c2ccccc21	131	4330
Cc1ccc(NC(=O)NC2N=C(c3ccccc3)c3ccccc3N(CC(=O)Nc3ccncc3)C2=O)cc1 (racemic)	21	4000
CN1C(=O)C(NC(=O)Nc2ccccc2)N=C(c2ccccc2)c2ccccc21 (racemic)	0.26	–
CN1C(=O)[C@@H](NC(=O)c2ccc(C(F)(F)F)cc2)N=C(c2ccccc2)c2ccccc21	0.3	1300
CN1C(=O)[C@H](NC(=O)Nc2cccc(Br)c2)N=C(c2ccccc2)c2ccccc21	221	–
CN1C(=O)C(NC(=O)Nc2cccc(Br)c2)N=C(c2ccccc2)c2ccccc21 (racemic)	1	–
CCN(CC)C(=O)CN1C(=O)C(NC(=O)Nc2cccc(C)c2)N=C(c2ccccn2)c2ccccc21 (racemic)	776	435
COC(=O)[C@H]1CCCN1OC(=O)CN1C(=O)C(NC(=O)Nc2cccc(OC)c2)N=C(c2ccccc2)c2ccccc21 (mixture of isomers)	144	1400

SMILES	Selectivity ratio (Cavia porcellus)	IC50 [1] [nM]
Cc1cccc(NC(=O)NC2N=C(c3ccccn3)c3ccccc3N(C)C2=O)c1 (stereo unspecified)	1	65
COC(=O)Cc1cccc(NC(=O)NC2N=C(c3ccccc3)c3ccccc3N(C)C2=O)c1 (stereo unspecified)	64	2100
CN1C(=O)C(NC(=O)Nc2cccc([N+](=O)[O-])c2)N=C(c2ccccc2)c2ccccc21 (racemic)	3	–
COc1cccc(NC(=O)N[C@H]2N=C(c3ccccc3)c3ccccc3N(C)C2=O)c1	< 0.01	–
Cc1cccc(NC(=O)NC2N=C(c3ccccc3)c3ccccc3N(CC(=O)N3CCN(C)CC3)C2=O)c1 (racemic)	217	760
CN1C(=O)C(NC(=O)Nc2cccc(-c3ccccc3)c2)N=C(c2ccccc2)c2ccccc21 (racemic)	1	123
Cc1cccc(NC(=O)NC2N=C(c3ccccc3)c3ccccc3N(Cc3c[nH]cn3)C2=O)c1 (racemic)	1	–
COc1cccc(NC(=O)NC2N=C(c3ccccc3)c3ccccc3N(CC[N+](C)(C)C)C2=O)c1 (racemic)	15	17000
CN1C(=O)C(NC(=O)NCc2ccccc2)N=C(c2ccccc2)c2ccccc21 (racemic)	0.6	–
CN1C(=O)[C@H](NC(=O)c2ccc(C(F)(F)F)cc2)N=C(c2ccccc2)c2ccccc21	35	–
Cc1cccc(NC(=O)NC2N=C(c3ccccc3)c3cnccc3N(C)C2=O)c1 (racemic)	0.1	61.4
Cc1cccc(NC(=O)NC2N=C(c3ccccc3)c3ccccc3N(Cc3n[nH]c(C)n3)C2=O)c1 (racemic)	58	566
CCN(CC)CC(=O)OCCN1C(=O)C(NC(=O)Nc2cccc(C)c2)N=C(c2ccccc2)c2ccccc21 (racemic)	34	190
CN1C(=O)C(NC(=O)Nc2ccc(Cl)cc2)N=C(c2ccccc2)c2ccccc21 (racemic)	15	1200
CN1C(=O)C(NC(=O)NC2CCCCC2)N=C(c2ccccc2)c2ccccc21 (racemic)	0.8	–
O=C(Nc1ccc(Cl)cc1)N[C@@H]1N=C(c2ccccc2)c2ccccc2N(CC(=O)N2CCCC2)C1=O	643	900
C=Cc1cccc(NC(=O)N[C@@H]2N=C(c3ccccc3)c3ccccc3N(C)C2=O)c1	48	1670
CCNC(=O)CN1C(=O)C(NC(=O)Nc2ccc(Cl)cc2)N=C(c2ccccc2)c2ccccc21 (racemic)	191	–
CN1C(=O)C(NC(=O)Nc2ccc(Cl)c(Cl)c2)N=C(c2ccccc2)c2ccccc21 (racemic)	0.4	–
O=C(Nc1ccc(Cl)cc1)NC1N=C(c2ccccc2)c2ccccc2N(CC(=O)OCc2ccccc2)C1=O (racemic)	30	–
CN1C(=O)C(NC(=O)Nc2cccc(C(=O)O)c2)N=C(c2ccccc2)c2ccccc21 (racemic)	1.4	14
CN1C(=O)C(NC(=O)Nc2ccc(C(F)(F)F)cc2)N=C(c2ccccc2)c2ccccc21 (stereo unspecified)	228	1300
CN1C(=O)C(NC(=O)Nc2ccncc2)N=C(c2ccccc2)c2ccccc21 (racemic)	1.4	1510

SMILES	Selectivity ratio (Cavia porcellus)	IC50 [1] [nM]
COc1cccc(NC(=O)NC2N=C(c3ccccc3)c3ccccc3N(CC(=O)N3CCN(C)CC3)C2=O)c1 (racemic)	318	1400
O=C(O)CN1C(=O)C(NC(=O)Nc2ccc(Cl)cc2)N=C(c2ccccc2)c2ccccc21 (racemic)	0.77	–
COc1cccc(NC(=O)NC2N=C(c3ccccc3)c3ccccc3N(C)C2=O)c1 (racemic)	2	–
CN1C(=O)[C@H](NC(=O)Nc2ccccc2Cl)N=C(c2ccccc2)c2ccccc21	6.7	410
CCN(CC)C(=O)CN1C(=O)C(NC(=O)Nc2cccc(OC)c2)N=C(c2ccccc2)c2ccccc21 (racemic)	545	120
O=C(Nc1ccc(Cl)cc1)NC1N=C(c2ccccc2)c2ccccc2N(Cc2nnn[nH]2)C1=O (racemic)	–	2100
CN1C(=O)C(NC(=O)Nc2cccc(Cl)c2)N=C(c2ccccc2)c2ccccc21 (racemic)	1	–
Cc1cccc(NC(=O)N[C@H]2N=C(c3ccccc3)c3ccccc3N(C)C2=O)c1	–	4.7
CCOC(=O)CN1C(=O)C(NC(=O)c2ccccc2Cl)N=C(c2ccccc2F)c2ccccc21 (racemic)	> 9	–
COc1cccc(NC(=O)N[C@@H]2N=C(c3ccccc3)c3ccccc3N(C)C2=O)c1	272	–
Cc1cccc(NC(=O)NC2N=C(c3ccccc3)c3ccccc3N(Cc3ncc[nH]3)C2=O)c1 (racemic)	4	–
CN1C(=O)C(NC(=O)Nc2ccccc2[N+](=O)[O-])N=C(c2ccccc2)c2ccccc21 (racemic)	< 0.01	–
O=C(CN1C(=O)C(NC(=O)Nc2ccc(Cl)cc2)N=C(c2ccccc2)c2ccccc21)NCc1ccccc1 (racemic)	24	–
CN1C(=O)C(NC(=O)Nc2ccc(F)cc2)N=C(c2ccccc2)c2ccccc21 (stereo unspecified)	0.7	–
CCOC(=O)CN1C(=O)C(NC(=O)Nc2ccc(Cl)cc2)N=C(c2ccccc2)c2ccccc21 (racemic)	370	–
CCN(CC)C(=O)CN1C(=O)C(NC(=O)Nc2ccc(Cl)cc2)N=C(c2ccccc2)c2ccccc21 (racemic)	667	–
CN1C(=O)C(NC(=O)Nc2ccc([N+](=O)[O-])cc2)N=C(c2ccccc2)c2ccccc21 (racemic)	4.5	–
CN1C(=O)C(NC(=O)Nc2ccc(C(=O)O)cc2)N=C(c2ccccc2)c2ccccc21 (racemic)	–	> 10000
CN1C(=O)C(NC(=O)NC(C)(C)C)N=C(c2ccccc2)c2ccccc21 (racemic)	0.2	–
CN1C(=O)C(NC(=O)Nc2ccc(Cl)cc2Cl)N=C(c2ccccc2)c2ccccc21 (racemic)	0.01	–
CN1C(=O)C(NC(=O)Nc2ccc(Br)cc2)N=C(c2ccccc2)c2ccccc21 (racemic)	2.7	–
COc1cc(NC(=O)NC2N=C(c3ccccc3)c3ccccc3N(C)C2=O)cc(OC)c1 (racemic)	0.1	–
CCOC(=O)CCN1C(=O)C(NC(=O)Nc2ccc(Cl)cc2)N=C(c2ccccc2)c2ccccc21 (racemic)	204	–
